From PubChem BioAssay AID248 (DTP/NCI, 2004)
“And” between values parts separate entries of the source, which are not always exact repeats. Identical values can stand only once. Toxic doses and inconclusive results are not listed.

System: L1210 leukemia ip in BDF1 mice, survival T/C
Experiment: NCI In Vivo Anticancer Drug Screen. Data for tumor model L1210 Leukemia (intraperitoneal) in B6D2F1 (BDF1) mice
Settings: endpoint: mean survival time, higher = longer survival
How it was run: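 Transplanted-tumor mice were given test agent; controls received vehicle only. Survival readings from the two groups were divided (treated over control).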

[1] = dose: 200.0 mg/kg/injection, schedule: Q01DX001 (ip), vehicle: carboxymethylcellulose (CMC)
[2] = dose: 400.0 mg/kg/injection, schedule: Q01DX001 (ip), vehicle: carboxymethylcellulose (CMC)
[3] = dose: 100.0 mg/kg/injection, schedule: Q04DX003 (ip), vehicle: saline with Tween-80
[4] = dose: 200.0 mg/kg/injection, schedule: Q04DX003 (ip), vehicle: saline with Tween-80
[5] = dose: 400.0 mg/kg/injection, schedule: Q04DX003 (ip), vehicle: saline with Tween-80
[6] = dose: 100.0 mg/kg/injection, schedule: Q04DX003 (ip), vehicle: saline
[7] = dose: 200.0 mg/kg/injection, schedule: Q04DX003 (ip), vehicle: saline
[8] = dose: 400.0 mg/kg/injection, schedule: Q04DX003 (ip), vehicle: saline
[9] = dose: 100.0 mg/kg/injection, schedule: Q01DX001 (ip), vehicle: saline
[10] = dose: 200.0 mg/kg/injection, schedule: Q01DX001 (ip), vehicle: saline
[11] = dose: 400.0 mg/kg/injection, schedule: Q01DX001 (ip), vehicle: saline
[12] = dose: 100.0 mg/kg/injection, schedule: Q01DX009 (ip), vehicle: saline with Tween-80
[13] = dose: 200.0 mg/kg/injection, schedule: Q01DX009 (ip), vehicle: saline with Tween-80
[14] = dose: 400.0 mg/kg/injection, schedule: Q01DX009 (ip), vehicle: saline with Tween-80
[15] = dose: 100.0 mg/kg/injection, schedule: Q04DX002 (ip), vehicle: Klucel (hydroxypropylcellulose) (HPC)
[16] = dose: 200.0 mg/kg/injection, schedule: Q04DX002 (ip), vehicle: Klucel (hydroxypropylcellulose) (HPC)
[17] = dose: 400.0 mg/kg/injection, schedule: Q04DX002 (ip), vehicle: Klucel (hydroxypropylcellulose) (HPC)
[18] = dose: 100.0 mg/kg/injection, schedule: Q01DX001 (ip), vehicle: carboxymethylcellulose (CMC)
[19] = dose: 100.0 mg/kg/injection, schedule: Q04DX003 (ip), vehicle: Klucel (hydroxypropylcellulose) (HPC)
[20] = dose: 200.0 mg/kg/injection, schedule: Q04DX003 (ip), vehicle: Klucel (hydroxypropylcellulose) (HPC)
[21] = dose: 400.0 mg/kg/injection, schedule: Q04DX003 (ip), vehicle: Klucel (hydroxypropylcellulose) (HPC)

With `C=CC#N` the T/C (dose: 6.0 mg/kg/injection, schedule: Q01DX009 (ip), vehicle: saline) was 95 % of control, the T/C (dose: 12.0 mg/kg/injection, schedule: Q01DX009 (ip), vehicle: saline) was 93 % of control and the T/C (dose: 12.5 mg/kg/injection, schedule: Q01DX009 (ip), vehicle: saline) was 98 % of control. The T/C (dose: 25.0 mg/kg/injection, schedule: Q01DX009 (ip), vehicle: saline) was 93 % of control, the T/C (dose: 50.0 mg/kg/injection, schedule: Q01DX009 (ip), vehicle: carboxymethylcellulose (CMC)) was 93 % of control and the T/C (dose: 50.0 mg/kg/injection, schedule: Q01DX009 (ip), vehicle: saline) was 94 % of control and 105 % of control. For the same molecule, the T/C (dose: 50.0 mg/kg/injection, schedule: Q04DX003 (ip), vehicle: saline) was 91 % of control, the T/C (dose: 100.0 mg/kg/injection, schedule: Q01DX009 (ip), vehicle: carboxymethylcellulose (CMC)) was 92 % of control and the T/C [1] was 90 % of control. For the same molecule, the T/C (dose: 200.0 mg/kg/injection, schedule: Q01DX009 (ip), vehicle: carboxymethylcellulose (CMC)) was 93 % of control, the T/C [2] was 95 % of control and the T/C (dose: 400.0 mg/kg/injection, schedule: Q01DX009 (ip), vehicle: carboxymethylcellulose (CMC)) was 97 % of control. For the same molecule, the T/C (dose: 600.0 mg/kg/injection, schedule: Q01DX001 (ip), vehicle: carboxymethylcellulose (CMC)) was 98 % of control, the T/C (dose: 600.0 mg/kg/injection, schedule: Q01DX009 (ip), vehicle: carboxymethylcellulose (CMC)) was 89 % of control and the T/C (dose: 800.0 mg/kg/injection, schedule: Q01DX001 (ip), vehicle: carboxymethylcellulose (CMC)) was 93 % of control. The T/C (dose: 800.0 mg/kg/injection, schedule: Q01DX009 (ip), vehicle: carboxymethylcellulose (CMC)) was 95 % of control.

For `CC(=O)Nc1cccc(/C=C/C=C/c2ccc([N+](=O)[O-])cc2)c1`, the T/C [3] was 93 % of control, the T/C [4] was 90 % of control and the T/C [5] was 90 % of control.

With `O=S(=O)(O)c1ccc(N=Nc2c(O)cc(O)cc2O)cc1` the T/C [6] was 94 % of control, the T/C [7] was 97 % of control and the T/C [8] was 93 % of control.

For `CC[Si](Cl)(CC)c1ccccc1`, the T/C [9] was 93 % of control, the T/C (dose: 100.0 mg/kg/injection, schedule: Q01DX001 (sc), vehicle: olive oil, sesame oil, peanut oil) was 107 % of control and the T/C [10] was 90 % of control. For the same molecule, the T/C (dose: 200.0 mg/kg/injection, schedule: Q01DX001 (sc), vehicle: olive oil, sesame oil, peanut oil) was 107 % of control, the T/C [11] was 195 % of control and the T/C (dose: 400.0 mg/kg/injection, schedule: Q01DX001 (sc), vehicle: olive oil, sesame oil, peanut oil) was 102 % of control.

With `COC(=O)C(C)C1CCC2C3=CC=C4CC(OC(C)=O)CCC4(C)C3CCC21C` (stereo not given) the T/C (dose: 100.0 mg/kg/injection, schedule: Q01DX001 (ip), vehicle: saline with Tween-80) was 93 % of control, the T/C (dose: 200.0 mg/kg/injection, schedule: Q01DX001 (ip), vehicle: saline with Tween-80) was 98 % of control and the T/C (dose: 400.0 mg/kg/injection, schedule: Q01DX001 (ip), vehicle: saline with Tween-80) was 104 % of control.

For `CC(C)(C)C1CCCC(=O)C1` (stereo not given), the T/C (dose: 50.0 mg/kg/injection, schedule: Q01DX001 (ip), vehicle: saline) was 101 % of control and the T/C [9] was 89 % of control.

For `Cc1cccc(/C(=C/c2ccc([N+](=O)[O-])cc2)C(=O)Nc2ccc(S(=O)(=O)F)cc2)c1`, the T/C [12] was 96 % of control, the T/C [13] was 97 % of control and the T/C [14] was 96 % of control.

For `O=C(c1ccccc1)C(O)(c1ccccc1)c1ccccc1`, the T/C [15] was 89 % of control, the T/C [16] was 107 % of control and the T/C [17] was 93 % of control.

With `O=C(NC1CCCCC1)c1ccc2ccccc2c1O` the T/C [4] was 98 % of control and the T/C [5] was 95 % of control.

`O=c1[nH]cnc2c1ncn2CCCOc1ccccc1` was tested, and the T/C [15] was 91 % of control, the T/C [16] was 88 % of control and the T/C [17] was 88 % of control.

With `CCCCCC1OC1C/C=C/CCCCCCCC(=O)OCC(COC(=O)CCCCCCC/C=C/CC1OC1CCCCC)OC(=O)CCCCCCC/C=C/CC1OC1CCCCC` (stereo not given) the T/C [9] was 109 % of control, the T/C [10] was 95 % of control and the T/C [11] was 97 % of control.

In the case of `O=[N+]([O-])c1ccc(OCn2ncc3ccc([N+](=O)[O-])cc32)cc1`, the T/C [18] is reported as 93 % of control, the T/C [1] is reported as 98 % of control and the T/C [2] is reported as 88 % of control.

In the case of `CCN=C(c1ccc(NC(=O)c2ccc(C(=O)Nc3ccc(C(=NCC)N(CC)CC)cc3)cc2)cc1)N(CC)CC`, the T/C (dose: 0.94 mg/kg/injection, schedule: Q01DX Z (ip), vehicle: carboxymethylcellulose (CMC)) is reported as 94 % of control and the T/C (dose: 1.87 mg/kg/injection, schedule: Q01DX Z (ip), vehicle: carboxymethylcellulose (CMC)) is reported as 95 % of control.

`[Cl][Fe]([Cl])[Cl]` was tested, and the T/C (dose: 12.5 mg/kg/injection, schedule: Q01DX009 (ip), vehicle: saline with Tween-80) was 98 % of control, the T/C (dose: 25.0 mg/kg/injection, schedule: Q01DX009 (ip), vehicle: saline with Tween-80) was 94 % of control and the T/C (dose: 75.0 mg/kg/injection, schedule: Q01DX001 (ip), vehicle: saline) was 96 % of control. For the same molecule, the T/C [3] was 93 % of control, the T/C (dose: 150.0 mg/kg/injection, schedule: Q01DX001 (ip), vehicle: saline) was 93 % of control and the T/C [4] was 94 % of control. The T/C (dose: 300.0 mg/kg/injection, schedule: Q01DX001 (ip), vehicle: saline) was 98 % of control and the T/C [5] was 105 % of control.

For `O=C(O)C1(O)c2ccccc2-c2ccc(Cl)cc21` (stereo not given), the T/C (dose: 50.0 mg/kg/injection, schedule: Q01DX001 (ip), vehicle: carboxymethylcellulose (CMC)) was 103 % of control, the T/C [18] was 105 % of control and the T/C [1] was 114 % of control. The T/C [2] was 103 % of control.

With `Cc1ccc(NC(=S)NC(=O)C(C)Oc2ccccc2)cc1Cl` (stereo not given) the T/C (dose: 100.0 mg/kg/injection, schedule: Q01DX009 (ip), vehicle: Klucel (hydroxypropylcellulose) (HPC)) was 94 % of control, the T/C [19] was 100 % of control and the T/C (dose: 200.0 mg/kg/injection, schedule: Q01DX009 (ip), vehicle: Klucel (hydroxypropylcellulose) (HPC)) was 101 % of control. The T/C [20] was 101 % of control, the T/C (dose: 400.0 mg/kg/injection, schedule: Q01DX009 (ip), vehicle: Klucel (hydroxypropylcellulose) (HPC)) was 101 % of control and the T/C [21] was 109 % of control.

`CC(=O)OCCCCBr` was tested, and the T/C (dose: 100.0 mg/kg/injection, schedule: Q01DX009 (ip), vehicle: saline) was 100 % of control, the T/C [19] was 98 % of control and the T/C (dose: 200.0 mg/kg/injection, schedule: Q01DX009 (ip), vehicle: saline) was 98 % of control. For the same molecule, the T/C [20] was 91 % of control, the T/C (dose: 400.0 mg/kg/injection, schedule: Q01DX009 (ip), vehicle: saline) was 98 % of control and the T/C [21] was 94 % of control.

`COc1cc(/C=C2/SC(=S)NC2=O)cc(OC)c1OC` was tested, and the T/C [12] was 96 % of control, the T/C [3] was 100 % of control and the T/C [13] was 92 % of control. The T/C [4] was 100 % of control, the T/C [14] was 97 % of control and the T/C [5] was 117 % of control.

With `N#CC1CNCCC1=N` (stereo not given) the T/C [6] was 96 % of control, the T/C [7] was 96 % of control and the T/C [8] was 100 % of control.

`Clc1ccccc1/C=N/Nc1c2ccccc2nc2ccccc12` was tested, and the T/C [11] was 87 % of control.

For `Cc1c(CBr)c(=O)[nH]c2ccccc12`, the T/C [9] was 100 % of control and the T/C [10] was 98 % of control.

In the case of `[N-]=[N+]=c1c(=O)c2ccccc2c1=O`, the T/C [12] is reported as 103 % of control, the T/C [13] is reported as 97 % of control and the T/C [14] is reported as 96 % of control.

With `ClCC1=NC2C(Cl)C(Cl)C(Cl)C(Cl)C2N1` (stereo not given) the T/C [15] was 111 % of control, the T/C [16] was 100 % of control and the T/C [17] was 100 % of control.

`CCCCC/C(=C\c1ccccc1)C1OCC(CCl)O1` (stereo not given) was tested, and the T/C (dose: 222.0 mg/kg/injection, schedule: Q01DX Z (ip), vehicle: saline) was 100 % of control, the T/C (dose: 333.0 mg/kg/injection, schedule: Q01DX Z (ip), vehicle: saline) was 100 % of control and the T/C (dose: 500.0 mg/kg/injection, schedule: Q01DX Z (ip), vehicle: saline) was 109 % of control.

`CN(C)c1ccc(C=NCCN=Cc2ccc(N(C)C)cc2)cc1` was tested, and the T/C [3] was 98 % of control, the T/C [4] was 106 % of control and the T/C [5] was 95 % of control.
